Values joined by “and” are separate entries in the source; they are usually repeats but may differ in a detail not shown here. Equal entries are not always repeated.
How the values were obtained:
Type in all cases: biochemical
mAC4 = target: T1, mAC4 (Homo sapiens, UniProt Q8NFM4); test: AC assay, Gsα-stimulated mAC4 in membranes from transfected HEK293 cells; details: 20 µM fatty acid; 300 nM Gsα; single experiments
T1 construct: Human mAC genes were from GenScript and fitted with a C-terminal FLAG-tag; FLAG (C); made in house; host or cells: HEK293, permanently transfected; membrane preparation
T1 sequence (Q8NFM4 1-1077): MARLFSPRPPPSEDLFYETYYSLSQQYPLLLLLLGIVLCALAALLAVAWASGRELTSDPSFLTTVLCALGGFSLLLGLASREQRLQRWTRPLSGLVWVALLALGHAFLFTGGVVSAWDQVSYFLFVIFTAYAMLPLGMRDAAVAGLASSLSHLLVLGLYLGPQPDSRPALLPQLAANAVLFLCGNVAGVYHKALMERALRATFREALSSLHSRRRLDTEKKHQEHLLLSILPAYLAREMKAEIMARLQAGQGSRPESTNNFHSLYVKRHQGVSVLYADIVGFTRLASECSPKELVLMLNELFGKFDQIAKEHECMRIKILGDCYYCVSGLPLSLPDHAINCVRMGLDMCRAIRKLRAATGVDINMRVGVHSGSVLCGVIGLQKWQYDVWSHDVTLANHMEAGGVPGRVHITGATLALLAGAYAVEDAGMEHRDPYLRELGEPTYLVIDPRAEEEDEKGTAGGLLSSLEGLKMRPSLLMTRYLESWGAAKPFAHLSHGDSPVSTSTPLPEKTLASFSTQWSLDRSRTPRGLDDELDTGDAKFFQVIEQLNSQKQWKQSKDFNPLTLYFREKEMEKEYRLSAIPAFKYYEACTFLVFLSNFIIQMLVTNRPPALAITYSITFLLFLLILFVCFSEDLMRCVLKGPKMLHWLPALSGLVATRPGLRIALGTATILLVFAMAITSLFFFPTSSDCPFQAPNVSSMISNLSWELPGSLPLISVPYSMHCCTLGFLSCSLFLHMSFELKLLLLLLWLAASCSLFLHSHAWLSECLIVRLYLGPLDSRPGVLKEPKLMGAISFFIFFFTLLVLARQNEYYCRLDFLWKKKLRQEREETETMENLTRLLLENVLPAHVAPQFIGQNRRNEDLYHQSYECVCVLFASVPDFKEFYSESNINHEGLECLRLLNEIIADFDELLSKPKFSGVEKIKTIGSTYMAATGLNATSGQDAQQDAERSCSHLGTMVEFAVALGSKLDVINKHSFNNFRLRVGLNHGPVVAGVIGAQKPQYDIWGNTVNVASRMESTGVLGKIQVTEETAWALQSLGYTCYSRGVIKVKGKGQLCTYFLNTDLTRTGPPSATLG
Protocol: (§1) hAC sequences were from NCBI were: ADCY1: NM_021116.3; ADCY2: NM_020546.2; ADCY3: NM_004036.4; ADCY4: NM_001198568.2; ADCY5: NM_183357.2; ADCY6: NM_015270.4; ADCY7: NM_001114.4; ADCY8: NM_001115.2; ADCY9: NM_001116.3. Human mAC genes were from GenScript and fitted with a C-terminal FLAG-tag. […] The gene was synthesized by GenScript. HEK293 cells were maintained in Dulbeccos Modified Eagle Medium (DMEM) with 10% fetal bovine serum at 37°C and 5% CO2. Transfection with AC plasmids was with PolyJet (SignaGen, Frederick, MD, USA). Permanent cell lines were generated by selection for 7 days with 600 µg/ml G418 and maintained with 300 µg/ml For membrane preparation, cells were tyrpsinized, collected by centrifugation (3000 × g, 5 min) and lysed and homogenized in 20 mM HEPES, pH 7.5, 1 mM Ethylenediaminetetraacetic acid (EDTA), 2 mM MgCl2, 1 mM Dithiothreitol (DTT), one tablet of cOmplete, EDTA-free (per 50 ml) and 250 mM sucrose by 20 strokes in a potter homogenizer on ice. Debris was removed (5 min at 1000 × g, 0°C), membranes were collected at 100,000 × g, 60 min at 0°C, suspended and stored at −80°C in 20 mM MOPS, pH 7.5, 0.5 mM EDTA, 2 mM MgCl2. […] Three cerebral cortices were dissected and homogenized in 4.5 ml cold 48 mM Tris–HCl, pH 7.4, 12 mM MgC1_2, and 0.1 mM Ethylene glycol-bis(β-aminoethyl ether)-N,N,N′,N′-tetraacetic acid (EGTA) with a Polytron hand disperser (Kinematica AG, Switzerland). […] The pellet was washed once with 5 ml 1 mM KHCO3. The final suspension in 2 ml 1 mM KHCO3 was stored in aliquots at −80°C.
(§2) In a volume of 10 μl, AC activities were measured using 1 mM ATP, 2 mM MgCl2, 3 mM creatine phosphate, 60 μg/ml creatine kinase, and 50 mM MOPS pH 7.5. The cAMP assay kit from Cisbio (Codolet, France) was used for detection according to the supplier’s instructions. For each assay, a cAMP standard curve was established. EC50 and IC50 values were calculated by GraphPad Prism version 8.4.3 for Windows, GraphPad Software, San Diego, CA, USA, https://www.graphpad.com .

mAC6 = target: T2, mAC6 (Homo sapiens, UniProt O43306); test: AC assay, Gsα-stimulated mAC6 in membranes from transfected HEK293 cells; details: 20µM fatty acid concentration
T2 construct: Human mAC genes were from GenScript and fitted with a C-terminal FLAG-tag; FLAG (C); made in house; host or cells: HEK293, permanently transfected; membrane preparation
Protocol: as §1, §2

mAC5 = target: T3, mAC5 (Homo sapiens, UniProt O95622); test: AC assay, Gsα-stimulated mAC5 in membranes from transfected HEK293 cells; details: 20µM fatty acid concentration
T3 construct: Human mAC genes were from GenScript and fitted with a C-terminal FLAG-tag; FLAG (C); made in house; host or cells: HEK293, permanently transfected; membrane preparation
Protocol: as §1, §2

mAC8 = target: T4, mAC8 (Homo sapiens, UniProt P40145); test: AC assay, Gsα-stimulated mAC8 in membranes from transfected HEK293 cells; details: 20µM fatty acid concentration
T4 construct: Human mAC genes were from GenScript and fitted with a C-terminal FLAG-tag; FLAG (C); made in house; host or cells: HEK293, permanently transfected; membrane preparation
Protocol: as §1, §2

mAC7 = target: T5, mAC7 (Homo sapiens, UniProt P51828); test: AC assay, Gsα-stimulated mAC7 in membranes from transfected HEK293 cells; details: Figure 5-figure supplement 2 left, 20 µM
T5 construct: Human mAC genes were from GenScript and fitted with a C-terminal FLAG-tag; FLAG (C); made in house; host or cells: HEK293, permanently transfected; membrane preparation
Protocol: as §1, §2

mAC3 = target: T6, mAC3 (Homo sapiens, UniProt O60266); test: AC assay, Gsα-stimulated mAC3 in membranes from transfected HEK293 cells; details: for Effect of lipid on 300 nM Gsα-stimulated mAC3: 20 µM, in words; for mAC3 activity [%] (100% = 300nM Gsα stimulation): fatty acid 20 µM, individual experiments
T6 construct: Human mAC genes were from GenScript and fitted with a C-terminal FLAG-tag; FLAG (C); made in house; host or cells: HEK293, permanently transfected; membrane preparation
Protocol: as §1, §2

mAC9 = target: T7, mAC9 (Homo sapiens, UniProt O60503); test: AC assay, Gsα-stimulated mAC9 in membranes from transfected HEK293 cells; details: 300 nM Gsα, single experiments
T7 construct: Human mAC genes were from GenScript and fitted with a C-terminal FLAG-tag; FLAG (C); made in house; host or cells: HEK293, permanently transfected; membrane preparation
Protocol: as §1, §2

mAC1 = target: T8, mAC1 (Homo sapiens, UniProt Q08828); test: AC assay, Gsα-stimulated mAC1 in membranes from transfected HEK293 cells; details: 20 µM fatty acid; 300 nM Gsα; single experiments
T8 construct: Human mAC genes were from GenScript and fitted with a C-terminal FLAG-tag; FLAG (C); made in house; host or cells: HEK293, permanently transfected; membrane preparation
Protocol: as §1, §2

mAC2 = target: T9, mAC2 (Homo sapiens, UniProt Q08462); test: AC assay, Gsα-stimulated mAC2 in membranes from transfected HEK293 cells; details: Figure 5-figure supplement 1 left, 20 µM
T9 construct: Human mAC genes were from GenScript and fitted with a C-terminal FLAG-tag; FLAG (C); made in house; host or cells: HEK293, permanently transfected; membrane preparation
Protocol: as §1, §2

T2 sequence (O43306 whole entry): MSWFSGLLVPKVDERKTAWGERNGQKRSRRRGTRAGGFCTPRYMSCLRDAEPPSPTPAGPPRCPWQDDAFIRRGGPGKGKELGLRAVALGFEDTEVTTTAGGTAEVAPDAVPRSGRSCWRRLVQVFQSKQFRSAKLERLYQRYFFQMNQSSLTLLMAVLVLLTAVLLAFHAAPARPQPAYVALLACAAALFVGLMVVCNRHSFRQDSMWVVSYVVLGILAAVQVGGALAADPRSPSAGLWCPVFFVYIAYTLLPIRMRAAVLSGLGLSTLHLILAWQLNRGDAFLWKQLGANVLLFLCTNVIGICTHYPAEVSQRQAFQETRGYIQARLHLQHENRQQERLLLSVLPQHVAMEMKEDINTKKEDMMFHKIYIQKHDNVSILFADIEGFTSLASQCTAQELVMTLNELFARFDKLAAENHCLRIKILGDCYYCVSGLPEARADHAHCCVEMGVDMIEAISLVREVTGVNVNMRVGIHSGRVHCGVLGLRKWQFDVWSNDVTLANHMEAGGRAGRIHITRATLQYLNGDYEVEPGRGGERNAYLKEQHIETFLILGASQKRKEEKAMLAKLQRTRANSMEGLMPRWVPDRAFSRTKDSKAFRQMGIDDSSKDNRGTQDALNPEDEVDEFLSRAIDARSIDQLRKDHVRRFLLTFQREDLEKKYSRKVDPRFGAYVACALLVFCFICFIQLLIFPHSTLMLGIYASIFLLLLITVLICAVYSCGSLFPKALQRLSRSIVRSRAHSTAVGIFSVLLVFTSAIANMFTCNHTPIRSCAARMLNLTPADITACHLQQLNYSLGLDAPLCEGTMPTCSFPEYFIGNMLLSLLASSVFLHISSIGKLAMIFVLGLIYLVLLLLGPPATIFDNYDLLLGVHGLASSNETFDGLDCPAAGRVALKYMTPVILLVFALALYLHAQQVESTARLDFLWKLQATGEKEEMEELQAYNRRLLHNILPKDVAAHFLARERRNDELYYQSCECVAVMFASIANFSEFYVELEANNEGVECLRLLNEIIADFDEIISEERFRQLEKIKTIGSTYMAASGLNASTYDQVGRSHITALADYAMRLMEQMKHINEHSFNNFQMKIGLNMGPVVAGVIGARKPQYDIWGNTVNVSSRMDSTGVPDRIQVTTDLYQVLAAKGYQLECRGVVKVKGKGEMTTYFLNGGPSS
T8 sequence (Q08828 whole entry): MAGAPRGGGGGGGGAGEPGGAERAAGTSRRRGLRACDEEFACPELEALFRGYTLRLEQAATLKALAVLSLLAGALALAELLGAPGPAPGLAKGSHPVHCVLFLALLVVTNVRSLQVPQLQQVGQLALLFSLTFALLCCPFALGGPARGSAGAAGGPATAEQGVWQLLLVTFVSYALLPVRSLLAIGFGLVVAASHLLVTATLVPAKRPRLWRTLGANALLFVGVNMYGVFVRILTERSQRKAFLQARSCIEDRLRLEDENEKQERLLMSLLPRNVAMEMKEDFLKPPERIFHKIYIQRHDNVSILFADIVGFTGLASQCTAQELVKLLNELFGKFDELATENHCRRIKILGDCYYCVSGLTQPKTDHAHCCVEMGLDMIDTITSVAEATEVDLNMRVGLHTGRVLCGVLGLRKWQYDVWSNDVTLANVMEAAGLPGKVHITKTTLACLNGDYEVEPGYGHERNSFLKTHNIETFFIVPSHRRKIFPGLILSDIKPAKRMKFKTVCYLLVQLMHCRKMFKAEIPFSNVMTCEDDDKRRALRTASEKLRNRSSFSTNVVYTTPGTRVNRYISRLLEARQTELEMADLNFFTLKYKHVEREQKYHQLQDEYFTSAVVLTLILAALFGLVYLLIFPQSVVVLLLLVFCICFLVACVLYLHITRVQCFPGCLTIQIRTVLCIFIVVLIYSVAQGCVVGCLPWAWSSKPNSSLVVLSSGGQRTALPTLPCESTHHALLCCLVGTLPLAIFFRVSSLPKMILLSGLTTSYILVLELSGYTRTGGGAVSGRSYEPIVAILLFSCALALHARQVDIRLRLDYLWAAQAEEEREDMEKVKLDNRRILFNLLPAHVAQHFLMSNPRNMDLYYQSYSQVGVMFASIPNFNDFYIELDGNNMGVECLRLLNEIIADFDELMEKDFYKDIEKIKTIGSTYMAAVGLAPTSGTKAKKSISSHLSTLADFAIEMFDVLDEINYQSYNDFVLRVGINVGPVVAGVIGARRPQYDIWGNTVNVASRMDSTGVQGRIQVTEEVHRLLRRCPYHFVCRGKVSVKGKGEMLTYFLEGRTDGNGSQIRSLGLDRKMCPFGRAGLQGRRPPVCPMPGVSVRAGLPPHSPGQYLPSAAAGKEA
T9 sequence (Q08462 whole entry): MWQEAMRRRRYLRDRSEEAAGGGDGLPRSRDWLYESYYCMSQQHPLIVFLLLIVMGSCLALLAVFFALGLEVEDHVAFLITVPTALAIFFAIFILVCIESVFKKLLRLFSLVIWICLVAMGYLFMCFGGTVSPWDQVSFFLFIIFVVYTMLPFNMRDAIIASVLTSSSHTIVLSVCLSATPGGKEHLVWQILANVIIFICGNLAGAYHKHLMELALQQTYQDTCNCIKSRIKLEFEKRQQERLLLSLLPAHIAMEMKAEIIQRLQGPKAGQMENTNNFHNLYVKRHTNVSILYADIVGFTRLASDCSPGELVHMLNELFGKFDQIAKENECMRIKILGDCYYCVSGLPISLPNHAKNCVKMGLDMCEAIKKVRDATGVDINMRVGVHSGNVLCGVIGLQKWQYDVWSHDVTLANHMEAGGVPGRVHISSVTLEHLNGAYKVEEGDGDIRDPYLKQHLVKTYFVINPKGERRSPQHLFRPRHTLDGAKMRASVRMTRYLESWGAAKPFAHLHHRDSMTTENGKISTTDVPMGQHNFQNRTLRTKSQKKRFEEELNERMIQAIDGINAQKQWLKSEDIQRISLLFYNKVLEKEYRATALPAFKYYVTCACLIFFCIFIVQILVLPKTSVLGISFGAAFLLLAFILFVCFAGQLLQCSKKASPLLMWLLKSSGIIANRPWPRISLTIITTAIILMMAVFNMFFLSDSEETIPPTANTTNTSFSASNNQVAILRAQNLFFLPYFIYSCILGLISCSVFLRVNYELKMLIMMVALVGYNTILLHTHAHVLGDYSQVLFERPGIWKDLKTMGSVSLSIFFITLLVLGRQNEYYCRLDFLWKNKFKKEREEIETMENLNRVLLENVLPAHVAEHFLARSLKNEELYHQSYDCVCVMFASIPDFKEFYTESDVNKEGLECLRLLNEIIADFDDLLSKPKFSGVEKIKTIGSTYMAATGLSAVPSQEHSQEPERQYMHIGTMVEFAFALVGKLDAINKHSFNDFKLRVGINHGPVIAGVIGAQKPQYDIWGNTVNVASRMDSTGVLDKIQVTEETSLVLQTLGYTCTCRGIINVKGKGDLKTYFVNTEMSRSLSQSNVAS
T9 sequence (P63092 2-394 Q227L partner): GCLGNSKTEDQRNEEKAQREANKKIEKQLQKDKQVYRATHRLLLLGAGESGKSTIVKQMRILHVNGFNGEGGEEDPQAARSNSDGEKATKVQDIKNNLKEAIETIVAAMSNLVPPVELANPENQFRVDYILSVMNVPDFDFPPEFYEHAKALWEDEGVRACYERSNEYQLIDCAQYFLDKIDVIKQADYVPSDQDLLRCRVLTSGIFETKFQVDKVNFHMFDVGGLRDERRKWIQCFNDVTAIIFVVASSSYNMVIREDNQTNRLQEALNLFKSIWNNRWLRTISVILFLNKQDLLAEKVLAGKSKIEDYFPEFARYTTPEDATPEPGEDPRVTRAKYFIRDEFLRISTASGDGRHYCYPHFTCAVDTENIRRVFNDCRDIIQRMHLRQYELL
T4 sequence (P40145 whole entry): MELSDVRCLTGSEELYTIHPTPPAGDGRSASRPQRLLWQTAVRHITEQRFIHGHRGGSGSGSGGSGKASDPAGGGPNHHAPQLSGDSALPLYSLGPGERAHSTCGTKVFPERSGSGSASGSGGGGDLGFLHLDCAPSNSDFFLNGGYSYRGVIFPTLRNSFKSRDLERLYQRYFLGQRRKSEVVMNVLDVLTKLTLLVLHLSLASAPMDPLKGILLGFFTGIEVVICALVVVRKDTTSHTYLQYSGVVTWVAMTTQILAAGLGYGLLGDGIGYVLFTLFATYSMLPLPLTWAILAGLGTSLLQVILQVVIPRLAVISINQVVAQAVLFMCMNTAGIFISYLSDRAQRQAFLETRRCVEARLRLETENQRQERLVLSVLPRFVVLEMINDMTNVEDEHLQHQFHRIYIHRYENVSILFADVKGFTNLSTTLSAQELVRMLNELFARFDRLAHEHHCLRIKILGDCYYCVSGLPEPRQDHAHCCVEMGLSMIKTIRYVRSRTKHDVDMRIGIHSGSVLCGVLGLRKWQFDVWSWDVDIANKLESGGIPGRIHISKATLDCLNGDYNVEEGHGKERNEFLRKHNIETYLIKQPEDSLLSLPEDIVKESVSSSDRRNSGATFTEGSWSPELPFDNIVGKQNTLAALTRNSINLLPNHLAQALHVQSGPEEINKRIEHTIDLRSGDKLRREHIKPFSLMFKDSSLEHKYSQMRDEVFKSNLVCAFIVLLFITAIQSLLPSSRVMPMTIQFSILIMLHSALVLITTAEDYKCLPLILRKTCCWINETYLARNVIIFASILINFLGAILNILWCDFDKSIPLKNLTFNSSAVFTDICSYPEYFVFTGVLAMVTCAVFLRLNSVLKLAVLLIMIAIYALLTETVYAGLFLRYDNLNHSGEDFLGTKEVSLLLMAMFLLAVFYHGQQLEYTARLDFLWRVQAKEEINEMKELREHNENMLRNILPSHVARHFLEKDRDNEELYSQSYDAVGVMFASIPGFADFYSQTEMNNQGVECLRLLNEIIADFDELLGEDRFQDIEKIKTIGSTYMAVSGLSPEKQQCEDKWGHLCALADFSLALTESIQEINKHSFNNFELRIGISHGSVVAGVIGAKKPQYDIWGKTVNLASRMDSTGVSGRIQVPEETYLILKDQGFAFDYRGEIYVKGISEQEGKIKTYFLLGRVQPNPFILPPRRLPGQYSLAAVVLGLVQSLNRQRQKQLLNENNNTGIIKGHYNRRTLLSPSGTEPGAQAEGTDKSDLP

In the case of `CCCCCCCCCCCCCC(=O)O` [Myristic acid, Myristic (tetradecanoic) acid], the “mAC4 activity [%] (100% = 300nM Gsα stimulation); 20µM fatty acid concentration” value (mAC4) is reported as 71% and 59% and 97%, the “mAC6 activity [%] (100% = 300nM Gsα stimulation)” value (mAC6) is reported as 98% and 72% and 83% and the “mAC5 activity [%] (100% = 300nM Gsα stimulation)” value (mAC5) is reported as 105% and 80% and 76%. For the same molecule, the “mAC8 activity [%] (100% = 300nM Gsα stimulation)” value (mAC8) was 119% and 130% and 99%, the “mAC7 activity [%] (100% = 300nM Gsα stimulation); 20µM fatty acid concentration” value (mAC7) was 94% and 152% and 85% and 110% and the “Effect of lipid on 300 nM Gsα-stimulated mAC3” value (mAC3) was “no significant effect”. For the same molecule, the “mAC3 activity [%] (100% = 300nM Gsα stimulation)” value (mAC3) was 90% and 108% and 224% and 226%, the “mAC9 activity (%);(100% = Gsα stimulation) stimulated by 300nM Gsα” value (mAC9; 1 µM fatty acid) was 82% and 122% and 127% and 109% and 126% and 137% and the “mAC9 activity (%);(100% = Gsα stimulation) stimulated by 300nM Gsα” value (mAC9; 3 µM fatty acid) was 129% and 111% and 136% and 125%. For the same molecule, the “mAC9 activity (%);(100% = Gsα stimulation) stimulated by 300nM Gsα” value (mAC9; 6 µM fatty acid) was 104% and 129% and 178% and 179% and 144% and 168%, the “mAC9 activity (%);(100% = Gsα stimulation) stimulated by 300nM Gsα” value (mAC9; 10 µM fatty acid) was 130% and 135% and 224% and 171% and 187% and 200% and 115% and the “mAC9 activity (%);(100% = Gsα stimulation) stimulated by 300nM Gsα” value (mAC9; 20 µM fatty acid) was 168% and 189% and 240% and 185% and 310%. The “mAC9 activity [%] (100% = 300nM Gsα stimulation); 20µM fatty acid concentration” value (mAC9; 20 µM fatty acid) was 185% and 310% and 168% and 189% and 240%, the “mAC1 activity [%] (100% = 300nM Gsα stimulation); 20µM fatty acid concentration” value (mAC1) was 91% and 96% and 101% and the “mAC2 activity [%] (100% = 300nM Gsα stimulation); 20µM fatty acid concentration” value (mAC2) was 102% and 121% and 90% and 101%.

In the case of `CCCCCCCC/C=C\CCCCCCCC(N)=O` [Oleamide, Oleamide ((9Z)-octadecenamide)], the “mAC4 activity [%] (100% = 300nM Gsα stimulation); 20µM fatty acid concentration” value (mAC4) is reported as 104% and 64% and 83%, the “mAC6 activity [%] (100% = 300nM Gsα stimulation)” value (mAC6) is reported as 98% and 77% and the “mAC5 activity [%] (100% = 300nM Gsα stimulation)” value (mAC5) is reported as 97% and 111%. For the same molecule, the “mAC8 activity [%] (100% = 300nM Gsα stimulation)” value (mAC8) was 104% and 74%, the “mAC7 activity [%] (100% = 300nM Gsα stimulation); 20µM fatty acid concentration” value (mAC7) was 107% and 99% and the “Effect of lipid on 300 nM Gsα-stimulated mAC3” value (mAC3) was “less efficacious”. For the same molecule, the “mAC3 activity [%] (100% = 300nM Gsα stimulation)” value (mAC3) was 154% and 144% and 201% and 238% and 301% and 167% and 90% and 168%, the “mAC1 activity [%] (100% = 300nM Gsα stimulation); 20µM fatty acid concentration” value (mAC1) was 99% and 109% and the “mAC2 activity [%] (100% = 300nM Gsα stimulation); 20µM fatty acid concentration” value (mAC2) was 133% and 84%.

From article PMC11606603, “The membrane domains of mammalian adenylyl cyclases are lipid receptors” (eLife, 2024)
